Key:
Experiment in all cases: biochemical
Set-up in all cases: KINOMEscan competition binding panel, per cent of control
Details in all cases: read-out: %Ctrl @ 2800nM
[1] = target: T1, ASK2 (Homo sapiens, UniProt O95382)
T1 construct: gene MAP3K6
Outline: (§1)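 Competition binding panel (KINOMEscan) across 450 human kinases and disease-relevant mutants, run to the contractor's standard protocol. Values are % control: (test signal − positive control signal)/(negative control signal − positive control signal) × 100, with lower values indicating stronger binding.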

[2] = target: BTK (Homo sapiens, UniProt Q06187)
Outline: as §1

[3] = target: CDKL5 (Homo sapiens, UniProt O76039)
Outline: as §1

[4] = target: CHEK1 (Homo sapiens, UniProt O14757)
Outline: as §1

[5] = target: CSNK1G2 (Homo sapiens, UniProt P78368)
Outline: as §1

[6] = target: DDR2 (Homo sapiens, UniProt Q16832)
Outline: as §1

[7] = target: EPHB2 (Homo sapiens, UniProt P29323)
Outline: as §1

[8] = target: ERN1 (Homo sapiens, UniProt O75460)
Outline: as §1

[9] = target: FLT3(R834Q) (Homo sapiens, UniProt P36888, R834Q)
Outline: as §1

[10] = target: T2, JAK2(JH1domain-catalytic) (Homo sapiens, UniProt O60674)
T2 construct: JH1domain-catalytic
Outline: as §1

[11] = target: T3, JNK1 (Homo sapiens, UniProt P45983)
T3 construct: gene MAPK8
Outline: as §1

[12] = target: KIT (Homo sapiens, UniProt P10721)
Outline: as §1

[13] = target: T4, LOK (Homo sapiens, UniProt O94804)
T4 construct: gene STK10
Outline: as §1

[14] = target: MAP3K15 (Homo sapiens, UniProt Q6ZN16)
Outline: as §1

[15] = target: MAPKAPK5 (Homo sapiens, UniProt Q8IW41)
Outline: as §1

[16] = target: MARK2 (Homo sapiens, UniProt Q7KZI7)
Outline: as §1

[17] = target: T5, NDR1 (Homo sapiens, UniProt Q15208)
T5 construct: gene STK38
Outline: as §1

[18] = target: NEK1 (Homo sapiens, UniProt Q96PY6)
Outline: as §1

[19] = target: PIK3CA(C420R) (Homo sapiens, UniProt P42336, C420R)
Outline: as §1

[20] = target: T6, PIK4CB (Homo sapiens, UniProt Q9UBF8)
T6 construct: gene PI4KB
Outline: as §1

[21] = target: PLK1 (Homo sapiens, UniProt P53350)
Outline: as §1

[22] = target: PLK3 (Homo sapiens, UniProt Q9H4B4)
Outline: as §1

[23] = target: PRKD3 (Homo sapiens, UniProt O94806)
Outline: as §1

[24] = target: T7, RPS6KA5(Kin.Dom.1-N-terminal) (Homo sapiens, UniProt O75582)
T7 construct: Kin.Dom.1-N-terminal
Outline: as §1

[25] = target: T8, RSK3(Kin.Dom.1-N-terminal) (Homo sapiens, UniProt Q15349)
T8 construct: gene RPS6KA2; Kin.Dom.1-N-terminal
Outline: as §1

[26] = target: T9, p38-delta (Homo sapiens, UniProt O15264)
T9 construct: gene MAPK13
Outline: as §1

T2 sequence (O60674 whole entry): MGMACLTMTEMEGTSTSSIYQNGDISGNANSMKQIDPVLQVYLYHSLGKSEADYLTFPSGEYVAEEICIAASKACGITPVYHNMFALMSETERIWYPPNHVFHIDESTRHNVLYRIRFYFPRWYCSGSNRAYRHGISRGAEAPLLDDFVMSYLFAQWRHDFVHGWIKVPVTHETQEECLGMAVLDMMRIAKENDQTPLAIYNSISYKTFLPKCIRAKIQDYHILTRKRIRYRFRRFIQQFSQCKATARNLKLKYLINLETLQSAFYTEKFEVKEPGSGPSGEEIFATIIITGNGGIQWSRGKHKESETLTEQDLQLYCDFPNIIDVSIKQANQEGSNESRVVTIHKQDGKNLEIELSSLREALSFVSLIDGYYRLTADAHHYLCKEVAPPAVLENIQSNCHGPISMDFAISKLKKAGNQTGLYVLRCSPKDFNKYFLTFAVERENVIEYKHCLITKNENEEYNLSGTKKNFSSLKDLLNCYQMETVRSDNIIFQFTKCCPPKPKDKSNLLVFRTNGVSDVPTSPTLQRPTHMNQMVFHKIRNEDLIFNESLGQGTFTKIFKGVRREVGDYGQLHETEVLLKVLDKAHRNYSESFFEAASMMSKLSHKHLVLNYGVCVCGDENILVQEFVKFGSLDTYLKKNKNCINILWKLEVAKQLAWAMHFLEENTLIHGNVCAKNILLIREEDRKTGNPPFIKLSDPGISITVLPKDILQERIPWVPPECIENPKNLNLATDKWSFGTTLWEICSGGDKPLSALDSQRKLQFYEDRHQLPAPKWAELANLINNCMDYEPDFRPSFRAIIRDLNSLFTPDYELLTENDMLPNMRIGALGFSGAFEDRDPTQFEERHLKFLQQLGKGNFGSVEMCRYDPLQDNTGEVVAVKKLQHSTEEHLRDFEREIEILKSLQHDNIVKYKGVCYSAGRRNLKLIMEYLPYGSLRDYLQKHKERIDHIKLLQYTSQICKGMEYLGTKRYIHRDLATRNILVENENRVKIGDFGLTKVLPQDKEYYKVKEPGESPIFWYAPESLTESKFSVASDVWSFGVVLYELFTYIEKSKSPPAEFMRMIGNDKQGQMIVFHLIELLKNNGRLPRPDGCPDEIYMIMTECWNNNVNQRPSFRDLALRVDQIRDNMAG
PLK1, sequence (P53350 whole entry): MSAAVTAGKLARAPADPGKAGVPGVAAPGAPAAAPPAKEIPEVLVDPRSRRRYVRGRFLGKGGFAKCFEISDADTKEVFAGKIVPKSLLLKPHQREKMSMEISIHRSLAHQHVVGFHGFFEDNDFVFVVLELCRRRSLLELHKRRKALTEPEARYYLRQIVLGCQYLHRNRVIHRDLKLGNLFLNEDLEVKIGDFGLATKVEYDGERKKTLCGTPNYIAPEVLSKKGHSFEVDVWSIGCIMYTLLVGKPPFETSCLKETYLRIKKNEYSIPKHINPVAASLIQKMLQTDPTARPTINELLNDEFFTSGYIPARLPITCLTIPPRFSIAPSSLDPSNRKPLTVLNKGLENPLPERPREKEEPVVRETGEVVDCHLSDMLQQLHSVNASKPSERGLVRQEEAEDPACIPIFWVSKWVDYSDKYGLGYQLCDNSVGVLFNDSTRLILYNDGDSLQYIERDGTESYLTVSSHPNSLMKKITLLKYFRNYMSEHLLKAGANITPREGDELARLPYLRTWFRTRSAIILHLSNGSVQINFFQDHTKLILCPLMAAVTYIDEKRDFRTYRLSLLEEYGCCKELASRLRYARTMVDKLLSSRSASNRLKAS
T4 sequence (O94804 whole entry): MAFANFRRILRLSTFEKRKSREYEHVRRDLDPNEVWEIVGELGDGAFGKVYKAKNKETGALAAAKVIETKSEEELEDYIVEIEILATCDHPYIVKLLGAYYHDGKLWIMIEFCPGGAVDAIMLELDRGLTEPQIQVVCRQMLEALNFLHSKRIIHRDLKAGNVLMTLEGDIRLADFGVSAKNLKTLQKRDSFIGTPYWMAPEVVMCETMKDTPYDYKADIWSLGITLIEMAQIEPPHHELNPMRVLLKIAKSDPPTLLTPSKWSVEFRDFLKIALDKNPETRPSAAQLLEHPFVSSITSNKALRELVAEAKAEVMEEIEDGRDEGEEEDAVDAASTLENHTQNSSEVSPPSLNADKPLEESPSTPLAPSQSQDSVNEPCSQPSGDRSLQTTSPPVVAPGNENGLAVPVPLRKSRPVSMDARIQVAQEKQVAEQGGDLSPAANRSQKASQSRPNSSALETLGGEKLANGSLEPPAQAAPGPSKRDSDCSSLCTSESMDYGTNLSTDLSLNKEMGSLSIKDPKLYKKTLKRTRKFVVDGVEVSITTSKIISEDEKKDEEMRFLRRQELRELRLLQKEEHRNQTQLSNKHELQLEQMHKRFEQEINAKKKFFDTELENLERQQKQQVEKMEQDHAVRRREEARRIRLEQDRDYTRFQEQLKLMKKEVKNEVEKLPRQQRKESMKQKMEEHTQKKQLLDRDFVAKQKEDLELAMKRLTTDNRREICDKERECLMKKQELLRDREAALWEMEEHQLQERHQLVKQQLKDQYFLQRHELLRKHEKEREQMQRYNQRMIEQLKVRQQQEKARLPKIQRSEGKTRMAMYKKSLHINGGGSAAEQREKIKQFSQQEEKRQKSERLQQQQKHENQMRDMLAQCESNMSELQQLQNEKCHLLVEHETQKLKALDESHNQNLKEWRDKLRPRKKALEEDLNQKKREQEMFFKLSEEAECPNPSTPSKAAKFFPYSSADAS
T1 sequence (O95382 whole entry): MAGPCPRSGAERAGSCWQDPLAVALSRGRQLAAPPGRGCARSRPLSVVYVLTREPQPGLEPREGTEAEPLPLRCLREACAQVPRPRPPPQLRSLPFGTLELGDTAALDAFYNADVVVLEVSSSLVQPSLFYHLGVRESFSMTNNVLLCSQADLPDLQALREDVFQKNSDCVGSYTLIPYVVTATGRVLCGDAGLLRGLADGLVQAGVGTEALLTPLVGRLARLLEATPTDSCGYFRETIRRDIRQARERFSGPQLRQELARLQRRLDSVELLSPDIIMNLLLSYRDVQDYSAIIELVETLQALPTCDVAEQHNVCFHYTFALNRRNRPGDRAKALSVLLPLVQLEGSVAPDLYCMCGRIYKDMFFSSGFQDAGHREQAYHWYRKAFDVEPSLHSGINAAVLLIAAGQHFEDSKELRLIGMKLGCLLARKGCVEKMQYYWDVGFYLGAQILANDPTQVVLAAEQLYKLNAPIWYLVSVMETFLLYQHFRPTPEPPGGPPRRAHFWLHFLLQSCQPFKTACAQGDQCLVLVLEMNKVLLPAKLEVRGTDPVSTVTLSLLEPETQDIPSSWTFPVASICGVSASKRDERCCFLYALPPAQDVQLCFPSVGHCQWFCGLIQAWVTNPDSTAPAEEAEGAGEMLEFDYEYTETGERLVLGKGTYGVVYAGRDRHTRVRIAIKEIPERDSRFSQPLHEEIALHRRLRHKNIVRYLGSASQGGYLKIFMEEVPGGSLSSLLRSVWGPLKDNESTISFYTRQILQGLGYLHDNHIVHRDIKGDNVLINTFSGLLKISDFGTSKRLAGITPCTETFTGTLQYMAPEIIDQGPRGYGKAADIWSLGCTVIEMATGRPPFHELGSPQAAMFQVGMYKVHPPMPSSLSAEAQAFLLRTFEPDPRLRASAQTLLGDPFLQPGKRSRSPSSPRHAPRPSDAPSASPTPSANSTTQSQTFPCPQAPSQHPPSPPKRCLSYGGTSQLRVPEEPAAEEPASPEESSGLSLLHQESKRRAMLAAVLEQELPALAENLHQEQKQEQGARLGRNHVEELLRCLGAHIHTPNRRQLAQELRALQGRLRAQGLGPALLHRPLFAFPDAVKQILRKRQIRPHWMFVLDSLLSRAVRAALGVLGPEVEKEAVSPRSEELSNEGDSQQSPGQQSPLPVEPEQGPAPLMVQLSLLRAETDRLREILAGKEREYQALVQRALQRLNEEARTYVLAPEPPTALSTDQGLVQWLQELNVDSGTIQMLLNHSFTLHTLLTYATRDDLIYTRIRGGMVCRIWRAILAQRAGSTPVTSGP
KIT, sequence (P10721 whole entry): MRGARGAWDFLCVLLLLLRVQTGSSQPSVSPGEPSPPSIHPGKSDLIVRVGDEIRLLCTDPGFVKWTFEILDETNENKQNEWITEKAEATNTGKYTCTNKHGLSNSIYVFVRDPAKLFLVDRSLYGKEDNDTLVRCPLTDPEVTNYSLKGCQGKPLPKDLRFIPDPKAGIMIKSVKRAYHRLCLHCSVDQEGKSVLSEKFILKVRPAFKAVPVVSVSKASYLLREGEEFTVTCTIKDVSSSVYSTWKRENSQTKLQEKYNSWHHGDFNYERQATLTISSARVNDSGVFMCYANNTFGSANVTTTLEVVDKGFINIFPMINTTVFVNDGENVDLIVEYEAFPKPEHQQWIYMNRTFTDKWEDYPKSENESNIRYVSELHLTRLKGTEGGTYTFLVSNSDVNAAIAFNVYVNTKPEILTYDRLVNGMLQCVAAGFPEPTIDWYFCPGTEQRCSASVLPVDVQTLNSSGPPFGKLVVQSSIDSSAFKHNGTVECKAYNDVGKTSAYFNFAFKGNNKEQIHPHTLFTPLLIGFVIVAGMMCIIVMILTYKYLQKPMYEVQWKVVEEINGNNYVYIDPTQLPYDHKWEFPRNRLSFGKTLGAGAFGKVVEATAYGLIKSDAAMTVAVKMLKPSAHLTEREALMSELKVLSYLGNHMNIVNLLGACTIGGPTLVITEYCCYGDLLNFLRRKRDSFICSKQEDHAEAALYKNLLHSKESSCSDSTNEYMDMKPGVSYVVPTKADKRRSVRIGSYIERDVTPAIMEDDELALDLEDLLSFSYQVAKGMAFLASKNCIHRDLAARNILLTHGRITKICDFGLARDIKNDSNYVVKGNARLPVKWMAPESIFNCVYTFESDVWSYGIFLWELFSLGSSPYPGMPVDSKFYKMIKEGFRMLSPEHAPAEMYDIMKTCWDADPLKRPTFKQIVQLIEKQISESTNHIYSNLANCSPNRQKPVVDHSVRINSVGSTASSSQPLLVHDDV

[O-][S@@+](Cc1cncs1)C(c1ccccc1)c1ccccc1 [S-CE-123, (S)-5-((Benzhydrylsulfinyl)Methyl)Thiazole]
remaining binding at 2.8 µM [1]: 100%
remaining binding at 2.8 µM [2]: 100%
remaining binding at 2.8 µM [3]: 97%
remaining binding at 2.8 µM [4]: 89%
remaining binding at 2.8 µM [5]: 94%
remaining binding at 2.8 µM [6]: 100%
remaining binding at 2.8 µM [7]: 89%
remaining binding at 2.8 µM [8]: 86%
remaining binding at 2.8 µM [9]: 90%
remaining binding at 2.8 µM [10]: 100%
remaining binding at 2.8 µM [11]: 67%
remaining binding at 2.8 µM [12]: 97%
remaining binding at 2.8 µM [13]: 95%
remaining binding at 2.8 µM [14]: 84%
remaining binding at 2.8 µM [15]: 100%
remaining binding at 2.8 µM [16]: 100%
remaining binding at 2.8 µM [17]: 83%
remaining binding at 2.8 µM [18]: 90%
remaining binding at 2.8 µM [19]: 92%
remaining binding at 2.8 µM [20]: 94%
remaining binding at 2.8 µM [21]: 79%
remaining binding at 2.8 µM [22]: 95%
remaining binding at 2.8 µM [23]: 96%
remaining binding at 2.8 µM [24]: 100%
remaining binding at 2.8 µM [25]: 100%
remaining binding at 2.8 µM [26]: 95%
